Source: ChEMBL document CHEMBL5303761, “Data for DCP probe BI-3231” (2023)

Columns and labels:
[1] = target: Cannabinoid receptor 1 (Homo sapiens) (UniProt P21554); test: CB1(HU)_AGON Eurofins SafetyScreen44 (BI); details: filed as agonist; Compound concentration 10.0 uM
[2] = target: Prostaglandin G/H synthase 2 (Homo sapiens) (UniProt P35354); test: COX-2 Eurofins SafetyScreen44 (BI); details: Compound concentration 10.0 uM
[3] = target: Kappa-type opioid receptor (Homo sapiens) (UniProt P41145); test: KAPPA(KOP)_HU Eurofins SafetyScreen44 (BI); details: Compound concentration 10.0 uM
Sequence of Kappa-type opioid receptor (Homo sapiens) (P41145 whole entry): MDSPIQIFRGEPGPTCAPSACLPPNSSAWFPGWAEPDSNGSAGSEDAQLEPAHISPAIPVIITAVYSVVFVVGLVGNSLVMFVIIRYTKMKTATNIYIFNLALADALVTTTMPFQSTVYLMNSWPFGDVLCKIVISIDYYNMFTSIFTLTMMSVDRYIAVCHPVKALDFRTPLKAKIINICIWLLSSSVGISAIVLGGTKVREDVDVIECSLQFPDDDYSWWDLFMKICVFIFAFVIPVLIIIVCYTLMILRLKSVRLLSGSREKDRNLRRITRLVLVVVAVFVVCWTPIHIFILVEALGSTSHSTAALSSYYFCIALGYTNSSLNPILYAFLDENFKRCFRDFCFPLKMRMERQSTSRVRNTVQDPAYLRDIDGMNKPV

[4] = target: Adenosine receptor A2a (Homo sapiens) (UniProt P29274); test: A2A/H Eurofins SafetyScreen44 (BI); details: filed as antagonist, Compound concentration 10.0 uM
Sequence of Adenosine receptor A2a (Homo sapiens) (P29274 whole entry): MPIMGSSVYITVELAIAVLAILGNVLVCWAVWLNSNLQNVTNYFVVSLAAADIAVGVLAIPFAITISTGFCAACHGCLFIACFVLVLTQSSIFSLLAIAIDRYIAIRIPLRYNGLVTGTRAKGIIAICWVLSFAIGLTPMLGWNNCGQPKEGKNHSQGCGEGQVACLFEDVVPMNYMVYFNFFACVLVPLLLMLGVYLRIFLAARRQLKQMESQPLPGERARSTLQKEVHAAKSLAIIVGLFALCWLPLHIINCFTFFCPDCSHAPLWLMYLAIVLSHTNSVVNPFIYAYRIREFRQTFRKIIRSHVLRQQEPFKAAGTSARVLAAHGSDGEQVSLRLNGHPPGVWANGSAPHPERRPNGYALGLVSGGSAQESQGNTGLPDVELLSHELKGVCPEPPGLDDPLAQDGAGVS

[5] = target: Angiotensin-converting enzyme (Homo sapiens) (UniProt P12821); test: ACE(HU_AMTCH400) Eurofins SafetyScreen44 (BI); details: Compound concentration 10.0 uM
[6] = target: Androgen receptor (Homo sapiens) (UniProt P10275); test: ANDROGEN/H Eurofins SafetyScreen44 (BI); details: Compound concentration 10.0 uM
[7] = target: Beta-2 adrenergic receptor (Homo sapiens) (UniProt P07550); test: BETA2/HUM Eurofins SafetyScreen44 (BI); details: filed as antagonist, Compound concentration 10.0 uM
[8] = target: Cannabinoid receptor 2 (Homo sapiens) (UniProt P34972); test: CB2/PERIPH/H Eurofins SafetyScreen44 (BI); details: Compound concentration 10.0 uM
Sequence of Cannabinoid receptor 2 (Homo sapiens) (P34972 whole entry): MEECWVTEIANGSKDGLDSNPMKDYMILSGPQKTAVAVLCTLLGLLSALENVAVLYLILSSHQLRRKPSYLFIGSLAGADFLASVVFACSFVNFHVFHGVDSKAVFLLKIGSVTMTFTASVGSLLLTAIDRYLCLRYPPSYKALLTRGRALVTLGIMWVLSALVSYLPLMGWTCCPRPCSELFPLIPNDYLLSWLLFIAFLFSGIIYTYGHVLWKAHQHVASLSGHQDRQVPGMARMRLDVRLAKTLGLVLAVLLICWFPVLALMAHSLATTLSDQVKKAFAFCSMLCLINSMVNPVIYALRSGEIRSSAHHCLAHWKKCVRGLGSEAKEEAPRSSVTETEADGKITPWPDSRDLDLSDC

[9] = target: D(1A) dopamine receptor (Homo sapiens) (UniProt P21728); test: D1/H Eurofins SafetyScreen44 (BI); details: filed as antagonist, Compound concentration 10.0 uM
[10] = target: D(2) dopamine receptor (Homo sapiens) (UniProt P14416); test: D2SH_AGON Eurofins SafetyScreen44 (BI); details: filed as agonist, Compound concentration 10.0 uM
[11] = target: voltage-dependent K+ channel (stored as IKs; KCNQ1/KCNE1) (Rattus norvegicus, UniProt P15383+Q9Z0N7); test: K+/VOLT/RA Eurofins SafetyScreen44 (BI); assay type: protein-complex assay; details: rat brain, probe [125I]alpha-dendrotoxin, compound concentration 10 uM, read-out: % Ctrl
Sequence of voltage-dependent K+ channel (stored as IKs; KCNQ1/KCNE1) (Q9Z0N7 whole entry): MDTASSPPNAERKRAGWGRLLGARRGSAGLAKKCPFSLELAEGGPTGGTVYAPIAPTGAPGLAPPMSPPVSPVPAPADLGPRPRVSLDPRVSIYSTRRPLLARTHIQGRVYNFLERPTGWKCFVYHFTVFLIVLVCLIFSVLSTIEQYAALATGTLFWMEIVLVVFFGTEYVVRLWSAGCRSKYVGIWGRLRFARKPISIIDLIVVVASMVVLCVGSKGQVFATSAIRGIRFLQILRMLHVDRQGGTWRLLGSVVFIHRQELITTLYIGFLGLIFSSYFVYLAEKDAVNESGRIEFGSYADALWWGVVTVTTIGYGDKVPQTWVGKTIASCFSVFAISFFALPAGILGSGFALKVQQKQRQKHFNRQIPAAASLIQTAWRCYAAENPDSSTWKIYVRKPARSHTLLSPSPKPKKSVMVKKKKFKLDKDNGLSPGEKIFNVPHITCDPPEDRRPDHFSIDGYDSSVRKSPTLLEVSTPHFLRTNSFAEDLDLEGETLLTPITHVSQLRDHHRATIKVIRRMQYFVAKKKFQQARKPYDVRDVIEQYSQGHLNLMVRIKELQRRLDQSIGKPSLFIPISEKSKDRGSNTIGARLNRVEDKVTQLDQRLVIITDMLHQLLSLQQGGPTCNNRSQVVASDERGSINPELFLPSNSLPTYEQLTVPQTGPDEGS
Sequence of voltage-dependent K+ channel (stored as IKs; KCNQ1/KCNE1) (P15383 whole entry): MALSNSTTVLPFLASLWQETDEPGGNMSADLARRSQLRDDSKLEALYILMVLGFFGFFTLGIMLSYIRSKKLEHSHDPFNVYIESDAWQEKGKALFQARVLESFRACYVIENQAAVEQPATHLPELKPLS

[12] = target: Tyrosine-protein kinase Lck (Homo sapiens) (UniProt P06239); test: LCK_CE Eurofins SafetyScreen44 (BI); details: Compound concentration 10.0 uM
[13] = target: Glutamate NMDA receptor (Rattus norvegicus) (UniProt P35439+Q00959+Q00960+Q00961+Q62645+Q8VHN2+Q9R1M7); test: NMDA/R Eurofins SafetyScreen44 (BI); assay type: protein-complex assay; details: Compound concentration 10.0 uM
[14] = target: Neuronal acetylcholine receptor; alpha4/beta2 (Homo sapiens) (UniProt P17787+P43681); test: N_NEURO_A4B2 Eurofins SafetyScreen44 (BI); assay type: protein-complex assay; details: filed as agonist, Compound concentration 10.0 uM
[15] = target: cGMP-inhibited 3',5'-cyclic phosphodiesterase 3A (Homo sapiens) (UniProt Q14432); test: PDE3A Eurofins SafetyScreen44 (BI); details: Compound concentration 10.0 uM
[16] = target: T1, 5-hydroxytryptamine receptor 3A (Homo sapiens) (UniProt P46098); details: Compound concentration 10.0 uM
T1 sequence (whole entry): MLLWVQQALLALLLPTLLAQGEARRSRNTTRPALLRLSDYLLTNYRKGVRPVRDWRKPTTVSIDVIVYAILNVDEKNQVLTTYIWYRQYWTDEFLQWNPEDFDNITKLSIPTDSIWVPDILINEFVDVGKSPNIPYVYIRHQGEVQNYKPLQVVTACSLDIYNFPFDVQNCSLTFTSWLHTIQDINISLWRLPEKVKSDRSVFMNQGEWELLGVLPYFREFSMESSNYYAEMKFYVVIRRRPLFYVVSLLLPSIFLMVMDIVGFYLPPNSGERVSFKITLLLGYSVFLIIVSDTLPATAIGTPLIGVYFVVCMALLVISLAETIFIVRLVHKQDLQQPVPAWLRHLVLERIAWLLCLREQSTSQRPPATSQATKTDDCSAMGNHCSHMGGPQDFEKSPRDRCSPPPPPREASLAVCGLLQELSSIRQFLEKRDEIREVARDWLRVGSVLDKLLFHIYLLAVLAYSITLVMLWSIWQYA

[17] = target: Sodium-dependent serotonin transporter (Homo sapiens) (UniProt P31645); details: Compound concentration 10.0 uM
Sequence of Sodium-dependent serotonin transporter (Homo sapiens) (P31645 whole entry, looked up): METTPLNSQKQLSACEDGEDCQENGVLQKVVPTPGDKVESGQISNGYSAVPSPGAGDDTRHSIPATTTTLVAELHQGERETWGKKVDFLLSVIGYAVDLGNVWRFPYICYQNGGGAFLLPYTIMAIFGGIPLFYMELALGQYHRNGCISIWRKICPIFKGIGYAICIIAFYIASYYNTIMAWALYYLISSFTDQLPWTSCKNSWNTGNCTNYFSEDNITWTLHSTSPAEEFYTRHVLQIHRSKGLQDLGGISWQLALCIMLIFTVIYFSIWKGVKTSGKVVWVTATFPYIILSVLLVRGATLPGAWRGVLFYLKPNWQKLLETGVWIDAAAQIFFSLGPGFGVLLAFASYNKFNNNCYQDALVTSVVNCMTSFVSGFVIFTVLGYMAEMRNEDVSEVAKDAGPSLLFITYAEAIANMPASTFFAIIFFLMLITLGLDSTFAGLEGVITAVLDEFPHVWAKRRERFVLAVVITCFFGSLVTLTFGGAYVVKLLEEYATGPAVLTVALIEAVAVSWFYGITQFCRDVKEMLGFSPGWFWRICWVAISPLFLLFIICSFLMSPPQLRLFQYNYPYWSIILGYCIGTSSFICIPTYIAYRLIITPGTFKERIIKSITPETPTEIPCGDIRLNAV

[18] = target: Sodium-dependent dopamine transporter (Homo sapiens) (UniProt Q01959); details: Compound concentration 10.0 uM
Sequence of Sodium-dependent dopamine transporter (Homo sapiens) (Q01959 whole entry): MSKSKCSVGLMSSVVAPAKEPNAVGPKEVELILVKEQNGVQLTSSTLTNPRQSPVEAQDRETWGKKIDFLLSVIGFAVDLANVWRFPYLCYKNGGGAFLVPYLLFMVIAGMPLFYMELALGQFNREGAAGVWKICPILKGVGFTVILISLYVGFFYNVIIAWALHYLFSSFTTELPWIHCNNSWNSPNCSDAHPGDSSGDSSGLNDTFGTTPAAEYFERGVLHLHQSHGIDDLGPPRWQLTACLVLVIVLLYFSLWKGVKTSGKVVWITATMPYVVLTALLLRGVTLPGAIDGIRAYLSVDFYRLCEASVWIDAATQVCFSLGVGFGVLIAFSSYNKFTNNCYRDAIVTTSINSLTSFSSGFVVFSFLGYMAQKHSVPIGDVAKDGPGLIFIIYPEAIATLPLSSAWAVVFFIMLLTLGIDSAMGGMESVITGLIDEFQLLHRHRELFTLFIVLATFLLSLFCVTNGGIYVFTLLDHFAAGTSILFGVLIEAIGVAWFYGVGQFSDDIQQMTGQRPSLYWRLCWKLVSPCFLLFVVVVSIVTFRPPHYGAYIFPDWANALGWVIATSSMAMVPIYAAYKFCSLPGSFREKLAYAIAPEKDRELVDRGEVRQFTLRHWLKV

[19] = target: Histamine H1 receptor (Homo sapiens) (UniProt P35367); details: Compound concentration 10.0 uM
Sequence of Histamine H1 receptor (Homo sapiens) (P35367 whole entry): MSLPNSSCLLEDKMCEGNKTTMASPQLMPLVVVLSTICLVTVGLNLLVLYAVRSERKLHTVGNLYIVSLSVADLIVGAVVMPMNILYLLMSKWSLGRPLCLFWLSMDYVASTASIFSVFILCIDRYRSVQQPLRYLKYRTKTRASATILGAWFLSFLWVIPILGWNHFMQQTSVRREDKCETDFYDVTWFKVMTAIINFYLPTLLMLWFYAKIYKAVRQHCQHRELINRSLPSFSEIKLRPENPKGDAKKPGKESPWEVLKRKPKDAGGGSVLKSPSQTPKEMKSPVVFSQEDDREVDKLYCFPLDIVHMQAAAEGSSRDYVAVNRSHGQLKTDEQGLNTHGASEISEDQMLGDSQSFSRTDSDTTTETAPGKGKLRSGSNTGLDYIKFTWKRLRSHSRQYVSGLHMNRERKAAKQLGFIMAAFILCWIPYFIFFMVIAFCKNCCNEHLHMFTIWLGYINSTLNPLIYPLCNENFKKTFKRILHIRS

[20] = target: T2, Muscarinic acetylcholine receptor M2 (Homo sapiens) (UniProt P08172); details: Compound concentration 10.0 uM
T2 sequence (whole entry): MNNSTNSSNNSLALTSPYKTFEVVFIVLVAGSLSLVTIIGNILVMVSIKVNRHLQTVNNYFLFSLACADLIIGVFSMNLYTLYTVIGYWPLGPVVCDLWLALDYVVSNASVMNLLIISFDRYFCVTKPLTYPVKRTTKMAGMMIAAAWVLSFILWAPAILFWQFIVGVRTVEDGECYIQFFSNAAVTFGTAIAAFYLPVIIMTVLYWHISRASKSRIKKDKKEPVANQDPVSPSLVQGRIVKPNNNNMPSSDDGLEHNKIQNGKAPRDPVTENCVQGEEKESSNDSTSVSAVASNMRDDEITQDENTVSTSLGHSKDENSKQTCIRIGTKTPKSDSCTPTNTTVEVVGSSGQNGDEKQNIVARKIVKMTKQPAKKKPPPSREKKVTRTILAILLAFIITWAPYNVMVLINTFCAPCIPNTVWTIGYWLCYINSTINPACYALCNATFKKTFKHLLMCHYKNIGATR

[21] = target: GABA-A receptor; anion channel (Rattus norvegicus) (UniProt O09028+P15431+P18506+P18508+P19969+P20236+P23574+P23576+P28471+P28473+P30191+P62813+P63079+P63138+Q91ZM7+Q9ES14); details: Compound concentration 10.0 uM
[22] = target: Alpha-1D adrenergic receptor (Homo sapiens) (UniProt P25100); details: Compound concentration 10.0 uM
Sequence of Alpha-1D adrenergic receptor (Homo sapiens) (P25100 whole entry): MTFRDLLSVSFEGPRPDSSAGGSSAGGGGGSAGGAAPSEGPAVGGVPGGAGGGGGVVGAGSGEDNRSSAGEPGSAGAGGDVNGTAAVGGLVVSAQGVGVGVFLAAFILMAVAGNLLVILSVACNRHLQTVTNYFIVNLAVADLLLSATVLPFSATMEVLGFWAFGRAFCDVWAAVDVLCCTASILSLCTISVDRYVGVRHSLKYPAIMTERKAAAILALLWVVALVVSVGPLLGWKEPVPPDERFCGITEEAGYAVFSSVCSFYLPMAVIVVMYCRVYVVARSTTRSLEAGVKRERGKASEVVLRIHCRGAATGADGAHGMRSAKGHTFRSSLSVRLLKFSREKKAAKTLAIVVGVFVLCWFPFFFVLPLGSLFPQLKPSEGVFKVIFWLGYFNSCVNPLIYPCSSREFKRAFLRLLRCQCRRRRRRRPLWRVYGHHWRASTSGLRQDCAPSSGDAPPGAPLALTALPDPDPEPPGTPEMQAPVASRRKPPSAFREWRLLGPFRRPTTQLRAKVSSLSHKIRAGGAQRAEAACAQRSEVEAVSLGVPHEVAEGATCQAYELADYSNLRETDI

[23] = target: Sigma non-opioid intracellular receptor 1 (Homo sapiens) (UniProt Q99720); details: Compound concentration 10.0 uM
Sequence of Sigma non-opioid intracellular receptor 1 (Homo sapiens) (Q99720 whole entry): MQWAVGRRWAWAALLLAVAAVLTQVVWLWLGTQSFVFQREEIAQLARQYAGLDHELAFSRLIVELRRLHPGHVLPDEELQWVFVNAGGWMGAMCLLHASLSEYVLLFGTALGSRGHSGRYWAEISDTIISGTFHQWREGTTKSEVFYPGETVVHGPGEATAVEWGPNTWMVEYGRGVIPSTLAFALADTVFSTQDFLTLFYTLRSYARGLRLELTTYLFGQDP

Sequence of Cannabinoid receptor 1 (Homo sapiens) (P21554 whole entry): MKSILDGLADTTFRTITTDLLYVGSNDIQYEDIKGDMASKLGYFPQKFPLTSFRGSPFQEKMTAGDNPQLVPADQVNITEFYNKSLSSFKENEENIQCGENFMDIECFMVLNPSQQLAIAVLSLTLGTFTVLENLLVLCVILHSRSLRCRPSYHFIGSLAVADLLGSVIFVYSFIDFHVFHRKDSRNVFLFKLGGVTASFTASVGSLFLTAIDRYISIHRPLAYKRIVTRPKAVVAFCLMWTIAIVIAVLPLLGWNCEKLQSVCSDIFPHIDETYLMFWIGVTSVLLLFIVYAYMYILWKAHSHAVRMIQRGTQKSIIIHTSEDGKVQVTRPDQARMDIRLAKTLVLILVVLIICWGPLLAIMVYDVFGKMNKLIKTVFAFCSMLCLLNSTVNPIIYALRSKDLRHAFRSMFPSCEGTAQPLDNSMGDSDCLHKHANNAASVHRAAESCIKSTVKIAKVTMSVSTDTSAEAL

Row | SMILES | residual activity [1] [%] | residual activity [2] [%] | residual activity [3] [%] | residual activity [4] [%] | residual activity [5] [%] | residual activity [6] [%] | residual activity [7] [%] | residual activity [8] [%] | residual activity [9] [%] | residual activity [10] [%] | activity at 10 µM [11] | residual activity [12] [%] | residual activity [13] [%] | residual activity [14] [%] | residual activity [15] [%] | inhibition [16] [%] | inhibition [17] [%] | inhibition [18] [%] | inhibition [19] [%] | inhibition [20] [%] | further results
1 | CCn1c(=O)c(C)cn(Cc2nnc(-c3ccc(F)c(O)c3F)s2)c1=O | 101 | 49 | 94 | 103 | 99 | 102 | 99 | 98 | 105 | 84 | 103% (not active) | 91 | 104 | 109 | 94 | 10.6 | -3.65 | 24.9 | 8.66 | -5.24 | inhibition [21]: 27.6%; inhibition [22]: -1.34%; inhibition [23]: 17.2%
2 | CCn1c(=O)c(C)cn(Cc2nnc(-c3ccc(F)c(OC)c3F)s2)c1=O | 104 | 44 | 110 | 81 | 117 | 103 | 105 | 110 | 97 | 92 | 104% (not active) | 110 | 103 | 107 | 93 | 7.41 | -7.45 | 12.4 | -3.42 | -0.14 | inhibition [21]: 19.9%; inhibition [22]: 5.29%; inhibition [23]: 16.4%
